Source: patent US20060018970A1, “Enoximone formulations and their use in the treatment of cardiac hypertrophy and heart failure” (Myogen, Inc., priority 2003, published 2006)
Where two headings read alike, the source gives them in different places.

Columns and labels:
[1] = Solubility in the physiological pH range; type: physicochemical; conditions: data unpublished
[2] = tested on: type-III phosphodiesterase (PDE-III); conditions: cited from earlier work
clinical [3] = conditions: human, plasma
clinical [4] = conditions: human, in vivo, plasma concentration
[5] = tested on: patients with the most advanced stage of chronic heart failure dependent on intravenous inotrope therapy; conditions: cited from earlier work

Compound: CSc1ccc(C(=O)c2[nH]c(=O)[nH]c2C)cc1 [enoximone, 1,3-Dihydro-4-methyl-5-[4-(methylthio)benzoyl]-2H-imidazol-2-one]
- solubility [1]: Limited solubility
- inhibition of type-III phosphodiesterase [2]: highly selective inhibition
- concentration at 0.5 h (clinical [3]; 25 mg, Patient 4, dose 25 mg): 23.7 ng/mL
- concentration at 2 h (clinical [3]; 25 mg, Patient 4, dose 25 mg, 2 HR): 63.6 ng/mL
- concentration at 0 h (clinical [3]; 25 mg, Patient 4, dose 25 mg, PREDOSE): 18.6 ng/mL
- concentration at 2 h (clinical [3]; 50 mg, Max, 2 hrs, after dosing of enoximone, 5 patients, raw data): 383 ng/mL
- concentration at 0.5 h (clinical [3]; 50 mg, Patient 1, dose 50 mg): 118 ng/mL
- concentration at 1 h (clinical [3]; 50 mg, Patient 1, dose 50 mg): 424 ng/mL
- concentration at 2 h (clinical [3]; 50 mg, Patient 1, dose 50 mg, 2 HR): 383 ng/mL
- concentration at 4 h (clinical [3]; 50 mg, Patient 1, dose 50 mg, 4 HR): 209 ng/mL
- concentration at 6 h (clinical [3]; 50 mg, Patient 1, dose 50 mg): 112 ng/mL
- concentration at 0.5 h (clinical [3]; 50 mg, Patient 2, dose 50 mg): 52.8 ng/mL
- concentration at 1 h (clinical [3]; 50 mg, Patient 2, dose 50 mg): 49.8 ng/mL
- concentration at 2 h (clinical [3]; 50 mg, Patient 2, dose 50 mg, 2 HR): 127 ng/mL
- concentration at 4 h (clinical [3]; 50 mg, Patient 2, dose 50 mg, 4 HR): 237 ng/mL
- concentration at 6 h (clinical [3]; 50 mg, Patient 2, dose 50 mg): 122 ng/mL
- concentration at 0 h (clinical [3]; 50 mg, Patient 2, dose 50 mg, PREDOSE): 66.7 ng/mL
- concentration at 0.5 h (clinical [3]; 50 mg, Patient 3, dose 50 mg): 92.4 ng/mL
- concentration at 1 h (clinical [3]; 50 mg, Patient 3, dose 50 mg): 118 ng/mL
- concentration at 2 h (clinical [3]; 50 mg, Patient 3, dose 50 mg, 2 HR): 110 ng/mL
- concentration at 4 h (clinical [3]; 50 mg, Patient 3, dose 50 mg, 4 HR): 78.2 ng/mL
- concentration at 6 h (clinical [3]; 50 mg, Patient 3, dose 50 mg): 71.7 ng/mL
- concentration at 0 h (clinical [3]; 50 mg, Patient 3, dose 50 mg, PREDOSE): 34.4 ng/mL
- concentration at 0.5 h (clinical [3]; 50 mg, Patient 5, dose 50 mg): 137 ng/mL
- concentration at 1 h (clinical [3]; 50 mg, Patient 5, dose 50 mg): 355 ng/mL
- concentration at 2 h (clinical [3]; 50 mg, Patient 5, dose 50 mg, 2 HR): 369 ng/mL
- concentration at 4 h (clinical [3]; 50 mg, Patient 5, dose 50 mg, 4 HR): 268 ng/mL
- concentration at 6 h (clinical [3]; 50 mg, Patient 5, dose 50 mg): 166 ng/mL
- concentration at 0 h (clinical [3]; 50 mg, Patient 5, dose 50 mg, PREDOSE): 149 ng/mL
- concentration at 0 h (clinical [3]; Max, 0 hr, after dosing of enoximone, 5 patients, raw data): 149 ng/mL
- concentration at 4 h (clinical [3]; Max, 4 hrs, after dosing of enoximone, 5 patients, raw data): 268 ng/mL
- concentration at 8 h (clinical [3]; Max, after dosing of enoximone, 5 patients, raw data): 166 ng/mL
- concentration at 0 h (clinical [3]; Min, 0 hr, after dosing of enoximone, 5 patients, raw data): 7.95 ng/mL
- concentration at 2 h (clinical [3]; Min, 2 hrs, after dosing of enoximone, 5 patients, raw data): 63.6 ng/mL
- concentration at 4 h (clinical [3]; Min, 4 hrs, after dosing of enoximone, 5 patients, raw data): 44 ng/mL
- concentration at 8 h (clinical [3]; Min, after dosing of enoximone, 5 patients, raw data): 20.7 ng/mL
- plasma concentration (Patient 1, dose 50 mg, PREDOSE): 69.7 ng/mL
- plasma concentration (Patient 4, dose 25 mg, HR ALIQUOT 1 (between 0.5 HR and 2 HR)): 65.8 ng/mL
- concentration at 0 h (clinical [4]; Max): 150 ng/mL
- concentration at 2 h (clinical [4]; Max): 400 ng/mL
- concentration at 4 h (clinical [4]; Max): 200 ng/mL
- concentration at 8 h (clinical [4]; Max): 150 ng/mL
- concentration at 0 h (clinical [4]; Min): 0 ng/mL
- concentration at 2 h (clinical [4]; Min): 20 ng/mL
- concentration at 4 h (clinical [4]; Min): 15 ng/mL
- concentration at 8 h (clinical [4]; Min): 0 ng/mL
- time to death or re-initiation of i.v. inotrope therapy ([5]; 60-day (p=0.012), 75-day (p=0.016) and 90-day (p=0.041) periods): benefit in favor of enoximone versus placebo
- time to death or re-initiation of i.v. inotrope therapy ([5]; 182-day period (p=0.188)): not
- mean total days on i.v. inotrope therapy over the course of the study ([5]; placebo 49 days, p=0.049): 28 days
